From patent publication US10696687B2, “Pyrazolo fused heterocyclic compounds as ERK inhibitors” (CHANGZHOU JIEKAI PHARMATECH CO., LTD., priority 2015, dated 2020)

system: Colon cancer cells (Colo205 cell line); assay: Colo205 cell proliferation assay (MTT assay, WST-8 readout); assay type: cell-based; details: Homo sapiens, COLO 205, 72 hours incubation, absorbance at 450 nm, read-out: Colo 205 cell growth inhibition IC50
Experimental: Compounds disclosed herein were tested for the inhibition of ERK2 by a Colo205 cell proliferation assay commonly known as MTT assay. In this assay, a complete media was prepared by adding 10% fetal bovine serum to RPMI-1640 medium (Life technology). Colon cancer cells (Colo205 cell line) were added to each of 88 wells of a 96 well plate at a seeding density of 5,000 cells/well/90 μL. The cells were allowed to attach to the plate by incubating at 37° C. for 24 hours. The compound was dissolved in DMSO (SIGMA). A solution of test compound was prepared in complete media by serial dilution to obtain the following concentrations: 500 μM, 150 μM, 50 μM, 15 μM, 5 μM, 1.5 μM, 0.5 μM, 0.15 μM and 0.05 μM. The test compound solution (10 μL) was added to each of 80 cell-containing wells. The final concentrations of the compound were following: 50 μM, 15 μM, 5 μM, 1.5 μM, 0.5 μM, 0.15 μM, 0.05 μM, 0.015 μM and 0.005 μM. The final concentration of DMSO is 0.5%. To the 8 remaining cell-containing wells, only complete media (containing 0.5% DMSO) was added to form a control group in order to measure maximal proliferation. To the remaining 8 empty wells, complete media was added to for a vehicle control group in order to measure background. The plates were incubated at 37° C. for 72 hours. 10 μL WST-8 solution (DOJINDO, Cell Counting KIT-8) was added to each well. The plates were further incubated at 37° C. for 2 hours, and then read for the absorbance using a microplate reader at 450 nm.

Row | SMILES | IC50
1 | Cc1cc(-c2n[nH]c3ncc(C(=O)N[C@H]4CN(C)C[C@@H]4c4ccc(F)cc4Cl)cc23)ccn1 (relative stereo) [Compound 28, trans-N-(-4-(2-chloro-4-fluorophenyl)-1-methylpyrrolidin-3-yl)-3-(2-methylpyridin-4-yl)-1H-pyrazolo[3,4-b]pyridine-5-carboxamide] | 0.052 to 10 µM
2 | Cc1cc(-c2n[nH]c3ncc(C(=O)N[C@@H]4CN(C)C[C@H]4c4ccccc4Cl)cc23)ccn1 [Compound 33, N-((3S,4R)-4-(2-chlorophenyl)-1-methylpyrrolidin-3-yl)-3-(2-methylpyridin-4-yl)-1H-pyrazolo[3,4-b]pyridine-5-carboxamide] | 0.052 to 10 µM
3 | Cc1cc(-c2n[nH]c3ncc(C(=O)N[C@H]4CN(C)C[C@@H]4c4ccccc4C(F)(F)F)cc23)ccn1 (single isomer, unassigned) [Compound 15] | 0.052 to 10 µM
4 | Cc1cc(-c2n[nH]c3ncc(C(=O)N[C@H]4CN(C)C[C@@H]4c4ccc(F)cc4)cc23)ccn1 (relative stereo) [Compound 24, trans-N-(-4-(4-fluorophenyl)-1-methylpyrrolidin-3-yl)-3-(2-methylpyridin-4-yl)-1H-pyrazolo[3,4-b]pyridine-5-carboxamide] | 0.052 to 10 µM
5 | CN1C[C@H](NC(=O)c2cnc3[nH]nc(-c4ccnc(C(F)(F)F)c4)c3c2)[C@@H](c2ccccc2C(F)(F)F)C1 (stereo in doubt) [Compound 18, N-(-1-methyl-4-(2-(trifluoromethyl)phenyl)pyrrolidin-3-yl)-3-(2-(trifluoromethyl)pyridin-4-yl)-1H-pyrazolo[3,4-b]pyridine-5-carboxamide] | 0.052 to 10 µM
6 | Cc1cc(-c2n[nH]c3ncc(C(=O)N[C@H]4CNC[C@@H]4c4ccccc4C(F)(F)F)cc23)ccn1 (stereo in doubt) [Compound 19, 3-(2-methylpyridin-4-yl)-N-(-4-(2-(trifluoromethyl)phenyl)pyrrolidin-3-yl)-1H-pyrazolo[3,4-b]pyridine-5-carboxamide] | 0.052 to 10 µM
